Values joined by “and” are separate entries in the source; they are usually repeats but may differ in a detail not shown here. Equal values may be shown once.
Columns and labels:
[1] = Surface tension analysis (DuNouy ring method); format: physicochemical
Source text: Aggregation of the histamine releaser in the reference solution and the comparative solution(s) can be measured by measuring the surface tension of each of the reference solution and the comparative solution(s) using the DuNouy ring method, as described in PHYSICAL PHARMACY: PHYSICAL CHEMICAL PRINCIPLES IN THE PHARMACEUTICAL SCIENCES, Editors: Alfred Martin, James Swarbrick, Arthur Cammarata, Third Edition, Lea Et Febiger, Philadelphia, 1983. Surface tension may provide a measure of the critical micelle concentration of the histamine releaser in solution and for this reason is an indicator of aggregation of the histamine releaser in the solution. […]
The surface tension properties of the histamine liberating agent can be evaluated using the DuNouy ring method. […]
The force required to detach the ring in this manner is provided by a torsion wire and is recorded in dynes on a calibrated dial. […]
The tensiometer is calibrated with filtered water and the surface tension of a 50 mg/mL solution of Compound 1 in water is evaluated at room temperature.
The surface tension of each solution is evaluated at room temperature and the results are recorded in a curve of surface tension (y-axis) versus concentration of drug (x-axis).

[2] = Proton NMR relaxation rates (T1, T2) as measure of aggregation; format: physicochemical; conditions: for T1 / T2: D2O saline (150 mM NaCl)
Source text: There are two types of NMR relaxation, spin-lattice and spin-spin relaxation, referred to as T1 and T2 values, respectively. T1 and T2 are rate constants which measure the relaxation of NMR magnetization back to equilibrium (hereinafter collectively referred to as “NMR relaxation rates”). For small molecules in what is called the extreme narrowing limit, both T1 and T2 increase in inverse proportion to the rotational tumbling rate tc, which, in turn, is directly proportional to the average size of the aggregate. Thus, for small molecules, increases in T1 and/or T2 rates with the addition of excipient to the solution containing the histamine releaser, in the absence of significant changes in the viscosity of the solution, indicates a decrease in aggregation.
Compound 1 and excipient (in the various amounts noted below) are dissolved in 200 μL of D2O with 0.15 M NaCl adjusted to pD 3.0 with NaOD and/or DCl for compound stability reasons. Deuterated saline solution is used in the reference solution because critical compound peaks (or signals) overlap when deuterated water is employed. Samples in a titration series are prepared by serial dilutions. All NMR spectra are recorded at 30° C. on a Varian Unity Plus 500 MHz spectrometer. Spectra are referenced to D2O at 4.65 ppm. All spectra are processed using Varian VNMR® software v6.1a. T1 and T2 relaxation rates are measured using the standard inversion-recovery and Carr-Purcell-Meiboom-Gill (CPMG) experiments respectively, both of which are provided with the Varian software. CPMG experiments are described in M. Bulsing, et al., J. Chem. Soc. Chem. Commun. 1201-3 (1981); R. Freeman et al., IN DYNAMIC NMR SPECTROSCOPY, eds. L. Jackman and F. Cotton (1975) pp. 131-162, Academic Press, London and New York; and D. Rabenstein, et al., J. Magn. Reson. 64:541-546 (1985).
A series of solutions with increasing concentrations of Compound 1 in D2O saline, pD 3.0 are prepared and the NMR relaxation rate constants measured. Both T1S and T2S are measured because the drug, with a molecular weight of 1064.51, could lie outside the extreme motional narrowing limit for NMR, in which case, T1S would be expected to decrease and T2S would be expected to increase with a decrease in aggregation. See, K. Wüthrich, NMR OF PROTEINS AND NUCLEIC ACIDS, (1986) John Wiley Sons, New York.
A series of solutions containing 80 mM Compound 1 with increasing concentrations of d4-citrate in D2O saline, pD 3.0, are prepared, and the NMR relaxation rates are measured. The data obtained is summarized in Table 2 and reported graphically in FIG. 2.
A series of solutions containing 80 mM Compound 1 and varying concentrations of CaCl2 and d4-citrate in D2O saline, pD 3.0, are prepared, and the NMR relaxation rates are measured.

[3] = 80 mM Compound 1, d4-citrate 0.78 mM, pD 3
[4] = 80 mM Compound 1, d4-citrate 1.56 mM, pD 3
[5] = 80 mM Compound 1, d4-citrate 3.13 mM, pD 3
[6] = 80 mM Compound 1, d4-citrate 6.25 mM, pD 3
[7] = 80 mM Compound 1, d4-citrate 12.5 mM, pD 3
[8] = 80 mM Compound 1, d4-citrate 25 mM, pD 3
[9] = 80 mM Compound 1, d4-citrate 50 mM, pD 3
[10] = 80 mM Compound 1, d4-citrate 100 mM, pD 3
[11] = vinyl proton, 20 mM Compound 1, pD 3, 30° C.
[12] = vinyl proton, 40 mM Compound 1, pD 3, 30° C.
[13] = vinyl proton, 80 mM Compound 1, no excipient (reference solution), pD 3, 30° C.
[14] = vinyl proton, 160 mM Compound 1, pD 3, 30° C.

- critical micelle concentration ([1]; in water): about 14 mM
- slowing of relaxation rates compared to the reference solution ([2]; 80 mM Compound 1, 50 mM d4-citrate, D2O saline, pD 3): at least 25%
- change in the T1 value (slowing of the relaxation rate) compared to the reference solution ([2]; 80 mM Compound 1, CaCl2 + d4-citrate, all but the two lowest concentrations of CaCl2 of Table 3): greater than 25%
- d4-citrate concentration giving maximal effect on decreasing aggregation ([2]; 80 mM Compound 1, D2O saline, pD 3): 50 mM
- T1 ([2]; 80 mM Compound 1, d4-citrate 0.78 mM + CaCl2 100 mM, pD 3): 2.78 s
- T1 [2, 3]: 1.53 s
- T2 [2, 3]: 0.57 s
- T1 [2, 4]: 1.65 s
- T2 [2, 4]: 0.59 s
- T1 [2, 5]: 1.69 s
- T2 [2, 5]: 0.67 s
- T1 ([2]; 80 mM Compound 1, d4-citrate 5 mM + CaCl2 3.13 mM, pD 3): 1.45 s
- T1 ([2]; 80 mM Compound 1, d4-citrate 5 mM + CaCl2 6.25 mM, pD 3): 1.47 s
- T1 ([2]; 80 mM Compound 1, d4-citrate 5 mM + CaCl2 12.5 mM, pD 3): 1.51 s
- T1 ([2]; 80 mM Compound 1, d4-citrate 5 mM + CaCl2 25 mM, pD 3): 1.89 s
- T1 ([2]; 80 mM Compound 1, d4-citrate 5 mM + CaCl2 50 mM, pD 3): 1.94 s
- T1 ([2]; 80 mM Compound 1, d4-citrate 5 mM + CaCl2 100 mM, pD 3): 2.14 s
- T1 [2, 6]: 1.24 s
- T2 [2, 6]: 0.69 s
- T1 [2, 7]: 2.09 s
- T2 [2, 7]: 1.01 s
- T1 [2, 8]: 2.03 s
- T2 [2, 8]: 0.87 s
- T1 ([2]; 80 mM Compound 1, d4-citrate 50 mM + CaCl2 100 mM, pD 3): 2.26 s
- T1 [2, 9]: 2.13 s
- T2 [2, 9]: 1.31 s
- T1 [2, 10]: 1.96 s
- T2 [2, 10]: 0.85 s
- critical micelle concentration ([2]; in saline (D2O saline, pD 3)): 40 to 80 mM
- T1 ([2]; vinyl proton, 10 mM Compound 1, pD 3, 30° C.): 2.05 s
- T1 [2, 11]: 2.30 s
- T2 [2, 11]: 2.04 s
- T1 [2, 12]: 2.49 s
- T2 [2, 12]: 1.96 s
- T1 [2, 13]: 1.20 s and 1.2 s
- T2 [2, 13]: 0.38 s
- T1 [2, 14]: 0.83 s
- T2 [2, 14]: 0.13 s
SMILES: COc1cc2c(cc1OC)[C@H](c1cc(OC)c(OC)c(OC)c1)[N@@+](C)(CCCOC(=O)/C=C(\Cl)C(=O)OCCC[N@+]1(C)CCc3cc(OC)c(OC)cc3[C@H]1Cc1cc(OC)c(OC)c(OC)c1)CC2.[Cl-].[Cl-] [Compound 1, (Z)-2-chloro-1-{3-{(1R,2S)-6,7-dimethoxy-2-methyl-1-[(3,4,5-trimethoxyphenyl)methyl]-1,2,3,4-tetrahydro-2-isoquinolinio}propyl}-4-{3-[(1S,2R)-6,7-dimethoxy-2-methyl-1-(3,4,5-trimethoxyphenyl)-1,2,3,4-tetrahydro-2-isoquinolinio]propyl}-2-butenedioate dichloride]
- surface tension versus concentration ([1]; 1-50 mg/mL in water, room temperature, FIG. 1): concentration dependent surface tension lowering
